Results: patent US20020086885A1, “Pharmaceutical composition” (priority 1998, published 2002)
Structures can show the parent of a compound that is named as a salt.

Key:
[1] = tested on: obese, diabetic KKA^y mice; conditions: cited from earlier work
obese rats = conditions: given together with troglitazone; cited from earlier work
[2] = tested on: noninsulin-dependent diabetic mellitus (NIDDM) patients; assay: Concomitant administration of pioglitazone hydrochloride and mazindol in NIDDM patients; type: in vivo, human
From the text: Effects of concomitant administration of pioglitazone hydrochloride and mazindol in noninsulin-dependent diabetic mellitus (NIDDM) patients were studied.

For N=C(N)NCCC(=O)O [3-Guanidinopropionic acid], the “weight gain in mice treated with pioglitazone hydrochloride” value [1] is listed as “antagonizes in a dose-dependent manner”.

In the case of C[C@H](Cc1ccc2c(c1)OC(C(=O)[O-])(C(=O)[O-])O2)NC[C@H](O)c1cccc(Cl)c1.[Na+].[Na+] [CL316243], the “weight gain in brown adipose tissues caused by troglitazone” value (obese rats) is given as “completely inhibited”.

In the case of OC1(c2ccc(Cl)cc2)c2ccccc2C2=NCCN21 (stereo not shown) [mazindol], the body weight change ([2]; one NIDDM patient, mazindol 0.5 mg/day oral with placebo, 12 weeks, baseline 60.0 kg) is reported as 0.00 kg.

With CCc1ccc(CCOc2ccc(CC3SC(=O)NC3=O)cc2)nc1 (stereo not shown) [pioglitazone hydrochloride, 5-[4-[2-(5-ethyl-2-pyridyl)ethoxy]benzyl]-2,4-thiazolidinedione] the “body weight increased by” value ([2]; NIDDM patients, pioglitazone hydrochloride alone 45 mg/day oral, 12±2 weeks, means±standard deviation of 50 samples) was 0.72 ± 2.06 kg.
